# Patent publication US5696151A, “Compounds useful for the inhibition of the replication of HIV-1 and HIV-1 mutants” (priority 1995, dated 1997)
# Key:
# Type in all cases: cell-based
# HIV-1/100-Ile = assay: Inhibition of HIV-1 induced syncytium formation in CEM cells, RT mutant 100-Ile; conditions: Table 2B, day 4, averages of 2 to 3 independent experiments; for EC50: Human immunodeficiency virus 1, CCRF-CEM, 96 h, read-out: Antiviral Activity of Comparative Compounds EC50, 100-Ile
# From the text: (§1) CEM cells were obtained from the American Tissue Cell Culture Collection (Rockville, Md.). HIV-1(IIIB) was originally obtained from the culture supernatant of persistently HIV-1-infected H9 cells and was provided by R. C. Gallo and M. Popovic (National Cancer Institute, National Institutes of Health, Bethesda, Md.). […] 67: 5353-5359 (1993); HIV-1/Lys-138 ("Lys-138") was selected for resistance against TSAO-m^3T as described in Balzarini et al, Virology 192: 246-253 (1993) and Balzarini et al, Proc. Nat. Acad. Sci. USA 90: 6952-6956 (1993); HIV-1/181-Cys ("181-Cys") was selected for resistance against pyridinone L-697,661 as described in Balzarini et al, Virology 192: 246-253 (1993); and HIV-1/188-His ("188-His") was selected for resistance against HEPT as described in Balzarini et al, Mol. Pharmocol. 44: 694-701 (1993). 188-His was then further converted to HIV-1/188-Leu "188-Leu") upon further passage in cell culture in the absence of the HEPT.
# (§2) CEM cells were suspended at ≈300,000 cells per ml of culture medium and infected with approximately 100 CCID50 (CCID50 being the 50% cell culture infective dose) of HIV-1(IIIB) or one of the HIV-1 RT mutant strains described above. Then 100 μl of the infected cell suspensions was added to 200 μl microtiter plate wells containing 100 μl of appropriate serial (5-fold) dilutions of the test compounds. The inhibitory effect of the test compounds on HIV-1 induced syncytium formation in CEM cells was examined microscopically on day 4 post infection.
# HIV-1/106-Ala = assay: Inhibition of HIV-1 induced syncytium formation in CEM cells, RT mutant 106-Ala; conditions: Table 2B, day 4, averages of 2 to 3 independent experiments; for EC50: Human immunodeficiency virus 1, CCRF-CEM, 96 h, read-out: Antiviral Activity of Comparative Compounds EC50, 106-Ala
# From the text: as §1, §2
# HIV-1(IIIB) = assay: Inhibition of HIV-1 induced syncytium formation in CEM cells, wild type; conditions: Table 2B, WT = HIV-1(IIIB), day 4, averages of 2 to 3 independent experiments; for EC50: Human immunodeficiency virus 1, IIIB, CCRF-CEM, 96 h, read-out: Antiviral Activity of Comparative Compounds EC50, WT
# From the text: as §1, §2
# HIV-1/188-Leu = assay: Inhibition of HIV-1 induced syncytium formation in CEM cells, RT mutant 188-Leu; conditions: Human immunodeficiency virus 1, CCRF-CEM, 96 h, Table 2B, day 4, averages of 2 to 3 independent experiments, read-out: Antiviral Activity of Comparative Compounds EC50, 188-Leu
# From the text: as §1, §2
# HIV-1/181-Cys = assay: Inhibition of HIV-1 induced syncytium formation in CEM cells, RT mutant 181-Cys; conditions: Table 2B, day 4, averages of 2 to 3 independent experiments; for EC50: Human immunodeficiency virus 1, CCRF-CEM, 96 h, read-out: Antiviral Activity of Comparative Compounds EC50, 181-Cys
# From the text: as §1, §2
# HIV-1/103-Asn = assay: Inhibition of HIV-1 induced syncytium formation in CEM cells, RT mutant 103-Asn; conditions: Human immunodeficiency virus 1, CCRF-CEM, 96 h, Table 2B, day 4, averages of 2 to 3 independent experiments, read-out: Antiviral Activity of Comparative Compounds EC50, 103-Asn
# From the text: as §1, §2
# in vitro = conditions: human, cem cells, CC50 (50% cytostatic concentration), Table 2B; CEM cell proliferation; averages of 2 to 3 independent experiments
# From the text: as §1
# ^b 50% cytostatic concentration (i.e., compound concentration require
# to inhibit CEM cell proliferation by 50%)
# HIV-1/Lys-138 = assay: Inhibition of HIV-1 induced syncytium formation in CEM cells, RT mutant 138-Lys; conditions: Table 2B, day 4, averages of 2 to 3 independent experiments; for EC50: Human immunodeficiency virus 1, CCRF-CEM, 96 h, read-out: Antiviral Activity of Comparative Compounds EC50, 138-Lys
# From the text: as §1, §2
Compound,EC50 (HIV-1/100-Ile) [µg/mL],EC50 (HIV-1/106-Ala) [µg/mL],EC50 (HIV-1(IIIB)) [µg/mL],EC50 (HIV-1/188-Leu) [µg/mL],EC50 (HIV-1/181-Cys) [µg/mL],EC50 (HIV-1/103-Asn) [µg/mL],CC50 (in vitro) [µg/mL],EC50 (HIV-1/Lys-138) [µg/mL],"Antiviral Activity of Comparative Compounds EC50, 106-Ala (HIV-1/106-Ala) [µg/mL]","Antiviral Activity of Comparative Compounds EC50, WT (HIV-1(IIIB)) [µg/mL]","Antiviral Activity of Comparative Compounds EC50, 100-Ile (HIV-1/100-Ile) [µg/mL]","Antiviral Activity of Comparative Compounds EC50, 181-Cys (HIV-1/181-Cys) [µg/mL]","Antiviral Activity of Comparative Compounds EC50, 138-Lys (HIV-1/Lys-138) [µg/mL]"
CC=CCOc1cc(NC(=S)c2ccsc2C)ccc1Cl [Compound 1],0.048,0.023,0.0055,0.65,0.03,0.048,5.9,0.018,–,–,–,–,–
CC=CCOc1cc(NC(=S)c2ccoc2C)ccc1Cl [Compound 2],0.048,0.04,0.006,0.65,0.075,0.023,9,0.018,–,–,–,–,–
Cc1occc1C(=S)Nc1ccc(Cl)c(C=NOC(C)(C)C)c1 [Compound 3],0.057,–,–,0.91,0.08,0.23,5.8,0.045,0.03,0.0065,–,–,–
CON=Cc1cc(NC(=S)c2ccoc2C)ccc1OC [Compound 4],0.22,0.22,0.007,0.93,0.59,0.4,> 100,0.039,–,–,–,–,–
CC1=C(C(=S)Nc2ccc(Cl)c(C=NOC(C)(C)C)c2)CCCO1 [Compound 5],0.055,0.025,0.013,> 2,0.025,0.08,10,0.04,–,–,–,–,–
CC=CCSc1cc(NC(=S)c2ccoc2C)ccc1Cl [Compound 6],0.037,0.018,0.0041,1,0.045,0.03,4.7,0.03,–,–,–,–,–
CC1=C(C(=S)Nc2ccc(Cl)c(C=NOC(C)(C)C)c2)CCO1 [Compound 7],0.055,0.03,0.0065,1.2,0.045,0.058,11,0.04,–,–,–,–,–
CC=CCSc1cc(NC(=S)c2ccsc2C)ccc1Cl [Compound 8],0.032,0.023,0.0055,> 2,0.025,0.023,5.1,0.025,–,–,–,–,–
Cc1c(C(=S)Nc2ccc(Cl)c(C=NOC(C)(C)C)c2)ccn1C [Compound 10],0.65,0.23,0.02,> 2,0.033,1.27,6.5,0.09,–,–,–,–,–
Cn1ccc(C(=S)Nc2ccc(Cl)c(C=NOC(C)(C)C)c2)c1 [Compound 11],0.13,0.1,0.029,> 2,0.045,0.17,13,0.13,–,–,–,–,–
Cc1sccc1C(=S)Nc1ccc(Cl)c(OCCC(C)C)c1 [Compound 12],0.035,0.08,0.007,> 2,0.07,0.035,> 100,0.035,–,–,–,–,–
CCC1=C(C(=O)Nc2ccc(Cl)c(C(=O)OC3CCCCC3)c2)SCCO1 [Compound 13],0.26,0.17,0.08,≥ 2,0.07,0.38,11.4,0.25,–,–,–,–,–
Cc1sccc1C(=S)Nc1ccc(Cl)c(OCC(=O)OC(C)(C)C)c1 [Compound 14],0.16,0.1,0.067,> 2,0.087,0.12,2.1,0.24,–,–,–,–,–
CCC1=C(C(=O)Nc2ccc(Cl)c(C=NOC(C)(C)C)c2)SCCO1 [Compound 15],0.06,0.06,0.03,> 2,0.09,0.065,11.4,0.07,–,–,–,–,–
Cc1sccc1C(=S)Nc1ccc(Cl)c(C(=O)OC(C)C)c1 [Compound 16],0.15,0.077,0.0041,> 2,0.1,0.33,5.9,0.03,–,–,–,–,–
Cc1occc1C(=S)Nc1ccc(Cl)c(SCC(=O)OC(C)(C)C)c1 [Compound 17],0.49,0.3,0.22,≥ 2,0.45,0.73,7,0.18,–,–,–,–,–
CC1=C(C(=O)Nc2ccc(Cl)c(C=NOC(C)(C)C)c2)SCCO1 [Compound 18],0.33,0.15,0.014,> 2,0.13,0.33,8.5,0.22,–,–,–,–,–
CC=CCOc1cc(NC(=S)c2ccn(C)c2C)ccc1Cl [Compound 19],0.85,0.4,0.17,> 2,0.13,≥ 2,5.2,0.6,–,–,–,–,–
Cc1sccc1C(=S)Nc1ccc(Cl)c(SCC(=O)OC(C)(C)C)c1 [Compound 20],0.34,0.15,0.13,> 2,0.14,0.44,5.4,0.43,–,–,–,–,–
Cc1sccc1C(=S)Nc1ccc(Cl)c(C(=O)OC(C(C)C)C(C)C)c1 [Compound 21],0.3,0.23,0.008,> 2,0.17,0.61,6,0.11,–,–,–,–,–
CC1=C(C(=O)Nc2ccc(Cl)c(C(=O)OC(C(C)C)C(C)C)c2)SCCO1 [Compound 22],0.48,0.26,0.08,> 2,0.18,0.65,5.8,0.55,–,–,–,–,–
Cc1sccc1C(=O)Nc1ccc(Cl)c(C(=O)OC2CCCCC2)c1 [Compound 23],–,–,–,> 2,–,≥ 2,5.8,–,0.22,0.03,0.7,0.27,0.73
CC1=C(C(=O)Nc2ccc(Cl)c(C=NOC(C)(C)C)c2)CCCO1 [Compound 24],0.48,0.5,0.13,> 2,0.33,0.6,9.7,0.5,–,–,–,–,–
C=C(Cl)COc1cc(NC(=S)c2ccsc2C)ccc1C#N [Compound 25],0.2,0.2,0.03,> 2,0.44,0.4,3.3,0.13,–,–,–,–,–
Cc1occc1C(=S)Nc1ccc(Cl)c(OC2CCCCC2)c1 [Compound 26],0.33,0.09,0.033,> 2,≥ 2,0.33,5.3,0.5,–,–,–,–,–
